Results on three compounds are retold here after patent US12398121B2 (Nuvation Bio Inc., priority 2018, dated 2025).

One test has as its target Human recombinant PARP1 (Homo sapiens, UniProt P09874). Put plainly: RBC HotSpot PARP1 radioisotope-based filter binding assay. It is filed as biochemical. The gist of the method:
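Radiometric filter-binding assay: 2.5 nM recombinant enzyme with 20 μM histone (H4 for PARP1, H3 for PARP2) and activated DNA, pH 8.0, 1% DMSO. 20 min preincubation, then 10 μM ^32P-NAD^+ for 2 h at room temperature; filtered radioactivity gives IC50 fits.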

The next test has as its system 22RV1 cells. Kind of test: Cell proliferation assay (CellTiter Glo), 22RV1. It is filed as cell-based. Particulars: Homo sapiens, 22Rv1, 72 h, read-out: 22RV1 IC50. Background: ATP-based viability assays read luminescence as a measure of living cells.
Setting [1] is: 2.5 nM enzyme, histone H4, 10 μM 32P-NAD+, read-out: PARP1 IC50.

As usually defined, the IC50 is the point on the concentration scale where inhibition reaches its midpoint.

Read-outs that look alike come from different tables or passages of the source.

Chain of Human recombinant PARP1 (P09874 whole entry): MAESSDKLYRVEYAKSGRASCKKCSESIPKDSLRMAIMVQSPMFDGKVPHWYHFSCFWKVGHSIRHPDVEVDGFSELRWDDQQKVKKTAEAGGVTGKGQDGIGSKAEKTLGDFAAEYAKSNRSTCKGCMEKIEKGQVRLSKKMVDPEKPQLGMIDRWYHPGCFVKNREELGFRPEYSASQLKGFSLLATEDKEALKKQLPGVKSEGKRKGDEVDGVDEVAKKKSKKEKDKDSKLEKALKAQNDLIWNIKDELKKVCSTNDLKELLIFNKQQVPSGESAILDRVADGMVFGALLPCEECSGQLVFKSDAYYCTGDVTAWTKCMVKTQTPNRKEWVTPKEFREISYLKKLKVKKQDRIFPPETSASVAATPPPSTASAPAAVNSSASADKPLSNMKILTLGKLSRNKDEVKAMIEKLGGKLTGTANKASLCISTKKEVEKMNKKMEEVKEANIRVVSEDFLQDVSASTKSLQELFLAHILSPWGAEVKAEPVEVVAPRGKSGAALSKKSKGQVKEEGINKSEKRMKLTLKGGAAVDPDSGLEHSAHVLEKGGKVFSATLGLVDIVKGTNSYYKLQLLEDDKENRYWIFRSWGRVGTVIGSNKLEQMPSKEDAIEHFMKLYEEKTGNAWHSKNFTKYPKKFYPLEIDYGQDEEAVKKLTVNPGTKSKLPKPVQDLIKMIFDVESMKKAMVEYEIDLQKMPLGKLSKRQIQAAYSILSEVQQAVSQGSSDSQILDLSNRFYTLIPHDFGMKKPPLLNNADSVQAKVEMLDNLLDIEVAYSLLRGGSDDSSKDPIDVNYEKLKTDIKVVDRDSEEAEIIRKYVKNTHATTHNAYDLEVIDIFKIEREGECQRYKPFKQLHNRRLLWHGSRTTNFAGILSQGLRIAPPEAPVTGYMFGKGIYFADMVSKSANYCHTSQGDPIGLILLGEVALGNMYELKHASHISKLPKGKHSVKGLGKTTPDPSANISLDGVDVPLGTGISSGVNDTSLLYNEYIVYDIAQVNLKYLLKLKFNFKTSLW

For the compound `C[C@]12CCC(=O)C[C@@H]1CC[C@@H]1[C@@H]2CC[C@]2(C)[C@@H](OCCCCCC(=O)N3CCN(C(=O)c4cc(Cc5n[nH]c(=O)c6ccccc56)ccc4F)CC3)CC[C@@H]12` [Compound 1.2, 4-(3-(4-(6-(((5S,8R,9S,10S,13S,14S,17S)-10,13-dimethyl-3-oxohexadecahydro-1H-cyclopenta[a]phenanthren-17-yl)oxy)hexanoyl)piperazine-1-carbonyl)-4-fluorobenzyl)phthalazin-1(2H)-one], the IC50 on Human recombinant PARP1 (setting [1]) was determined as 3 nM; in the test with 22RV1 cells, 400 nM.
As to `CC(O)(CS(=O)(=O)c1ccc(NCCn2cc(CN3CCN(C(=O)c4cc(Cc5n[nH]c(=O)c6ccccc56)ccc4F)CC3)nn2)cc1)C(=O)Nc1ccc(C#N)c(C(F)(F)F)c1` (stereo in doubt) [Compound 1.97, (S)-N-(4-cyano-3-(trifluoromethyl)phenyl)-3-(4-(2-(4-((4-(2-fluoro-5-((4-oxo-3,4-dihydrophthalazin-1-yl)methyl)benzoyl)piperazin-1-yl)methyl)-1H-1,2,3-triazol-1-yl)ethylamino)phenylsulfonyl)-2-hydroxy-2-methylpropanamide], the IC50 at Human recombinant PARP1 was 2 nM; in the test on 22RV1 cells it was above 30000 nM.
Turning to `C[C@]12CCC(F)(F)C[C@@H]1CC[C@@H]1[C@@H]2CC[C@]2(C)[C@@H](OCCCCCC(=O)N3CCN(C(=O)c4cc(Cc5n[nH]c(=O)c6ccccc56)ccc4F)CC3)CC[C@@H]12` [Compound 1.114, 4-(3-(4-(6-((5S,8R,9S,10S,13S,14S,17S)-3,3-difluoro-10,13-dimethylhexadecahydro-1H-cyclopenta[a]phenanthren-17-yloxy)hexanoyl)piperazine-1-carbonyl)-4-fluorobenzyl)phthalazin-1(2H)-one], the IC50 at Human recombinant PARP1 (setting [1]) came out at 27.9 nM; in the test with 22RV1 cells (cell growth inhibition, three days of treatment), 1300 nM.
